The text below walks through data of US20080213236A1, “Natural Remedy-Dietary Supplement Combination Product” (priority 2005, published 2008).

The test system of experiment [1] is patients with rheumatoid arthritis. Briefly: Treatment of rheumatoid arthritis patients with the individual substances or extracts A-F. The settings on record: for alleviation/reduction of joint pain / improvement in joint sensitivity: after two weeks; for Result of treatment, scale of 1-10: individual substance, scale from 1 (scarcely any alleviation of symptoms) to 10 (complete elimination of symptoms). In kind it is in vivo, human. How it is done: All the abovementioned active ingredients or medicinal plant extracts A-F were tested singly in the treatment of rheumatoid arthritis. The following products and daily doses were used for this: A. Omega-3 fatty acids: 8 capsules of Ameu® 500 mg. One capsule of Ameu contains 500 mg of fish body oil (fatty oil from […] comprises 70 mg of eicosapentaenoic acid and 50 mg of docosahexaenoic acid (total 120 mg of omega-3 fatty acids). B. α-Tocopherol (vitamin E): 800 to 1000 I.U. once a day. C. Ascorbic acid (vitamin C): 3 g in three 1000 mg doses. D. Selenium: 300 μg of selenium as sodium selenite 5H2O ([…]® or […]®) once a day. E. Harpagophytum: 2×480 mg of dry extract once a day (extractant: ethanol 60% (V/V) (BIOCUR Arzneimittel GmbH). F. Boswellia serrata: 3×400 mg of dry extract once a day (H 15 Gufic tablets (Gufic Chem, India)). […] A positive rheumatoid factor was not obligatory. All the treated patients had elevated C-reactive protein and frequently raised ferritin as signs of inflammation. Bacterial and parasitic causes, and allergies (including yersinia, staphylococci, streptococci, mycoplasma, Whipple's disease, borreliosis and gluten allergies) were excluded. […] All the patients had discontinued their previous medication (morphine, ibuprofen, cortisol, etc.) at least one week before starting the treatment, or had received no medical therapy over a prolonged period because of toxic side effects of other medicaments. The results of treatment were classified on a scale of from 1 (scarcely any alleviation of symptoms) to 10 (complete elimination of symptoms).

The conditions of experiment [2]: single substance; cited from earlier work.
Another experiment has as its system rheumatoid arthritis. The settings on record: vitamin E alone, 1200 mg/day, without influencing the immune markers; cited from earlier work.

Take `O=C1O[C@H]([C@@H](O)CO)C(O)=C1O` [Ascorbic acid (vitamin C), Ascorbic acid]: in experiment [1], the “alleviation/reduction of joint pain” value is reported as 2-5%; the “improvement in joint sensitivity” value is 5-10%; the “Result of treatment, scale of 1-10” value is listed as 2.
For the molecule `C[C@]1(OC(=O)/C=C/c2ccccc2)C[C@@H](O)[C@]2(O)C=CO[C@@H](O[C@@H]3O[C@H](CO)[C@@H](O)[C@H](O)[C@H]3O)[C@@H]21` [Harpagoside], the “effectiveness compared with total root extract” value in experiment [2] is reported as “far less effective than the total root extract”.
Turning to `Cc1c(C)c2c(c(C)c1O)CC[C@@](C)(CCC[C@H](C)CCC[C@H](C)CCCC(C)C)O2` [α-Tocopherol (vitamin E), α-Tocopherol], in experiment [1], the “alleviation/reduction of joint pain” value came to 5%; the “improvement in joint sensitivity” value is 10%; the “Result of treatment, scale of 1-10” value was determined as 3.0. The pain result in the experiment on rheumatoid arthritis is given as “alleviation of pain”.
